Our source for the AC50 and IC50 values is patent US20230159496A1, “COMPOUNDS AND METHODS FOR MODULATING SPLICING” (REMIX THERAPEUTICS INC., priority 2020, published 2023).

Read-outs that look alike come from different tables or passages of the source.

What all share (type): cell-based
In one assay the test system is HTT mRNA. Put plainly: Splicing assay (RT-qPCR) monitoring HTT canonical junction (CJ) and alternative junction (AJ) mRNA isoforms. In outline: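 A673 or K562 cells treated 24 h at 37 °C with an 11-point 3-fold dilution (top 10 uM final, DMSO ≤0.25%). Lysates assayed by one-step RT-qPCR for HTT CJ and AJ isoforms, normalized to GAPDH, GUSB (K562) or PPIA (A673).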
For orientation: Real-time PCR tracks product formation cycle by cycle.

A further assay relates to HTT CJ mRNA. Put plainly: Gene panel canonical junction qPCR assay, HTT. The note with it: read-out: HTT IC50. In a few lines:
(§1)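 A673 or K562 cells were treated for 24 h at 37 °C with an 11-point 3-fold dilution, top dose 10 uM, DMSO ≤0.25%. Canonical junction mRNA in lysates was quantified by one-step RT-qPCR and normalized to GAPDH, GUSB or PPIA.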

The test system of the next assay is SMN2 CJ mRNA. In words: Gene panel canonical junction qPCR assay, SMN2. To be noted: read-out: SMN2 IC50. In a few lines:
as §1

For another assay, the system named is Target C CJ mRNA. Put plainly: Gene panel canonical junction qPCR assay, Target C. The note with it: read-out: Target C IC50. In outline:
as §1

The mark [1] stands for this setting: decrease in CJ mRNA (50% response), A673 or K562 cells, 24 h treatment, top dose 10 uM, read-out: HTT CJ AC50.
The mark [2] stands for this setting: increase in AJ mRNA (50% response), A673 or K562 cells, 24 h treatment, top dose 10 uM, read-out: HTT AJ AC50.
[3] abbreviates: decrease in CJ mRNA levels, gene panel.

The term AC50 denotes the midpoint of the concentration-response curve, whichever way the signal moves. What is called IC50 is the concentration that gives 50% inhibition. As for `Cc1cn2nc(-c3ccc4c(=O)n(C5CCN(C)CC5)ncc4c3)cc(C)c2n1` [Compound 265], the AC50 in the assay on HTT mRNA (setting [1]) and in the assay on HTT mRNA (setting [2]) was below 100 nM in each case. Besides, the IC50 in the assay with HTT CJ mRNA (setting [3]) is below 100 nM; in the assay on SMN2 CJ mRNA (setting [3]) it was below 100 nM; with Target C CJ mRNA (setting [3]), 0.1 to 1 µM.

With `Cc1cc(-c2ccc3nc(NC4CCN(C)CC4)[nH]c(=O)c3c2)cc2cn(C)nc12` [Compound 167], the AC50 with HTT mRNA (setting [1]) and with HTT mRNA (setting [2]) was above 10000 nM each time. Further, the figures for the IC50 in the assay with HTT CJ mRNA (setting [3]), in the assay on SMN2 CJ mRNA (setting [3]) and in the assay on Target C CJ mRNA (setting [3]) were above 10000 nM, above 10000 nM and above 10 µM, respectively.

On to `O=c1c2ccc(-c3cn[nH]c3)cc2ncn1C1CCNCC1` [Compound 284], for which the AC50 in the assay on HTT mRNA (setting [1]) and with HTT mRNA (setting [2]) was above 10000 nM in each case. The IC50 in the assay on HTT CJ mRNA (setting [3]) was above 10000 nM; in the assay on SMN2 CJ mRNA (setting [3]), 1000 to 10000 nM; in the assay with Target C CJ mRNA (setting [3]) it was above 10 µM.

Consider `Cc1cc(-c2ccc3nc(N4CCNCC4)[nH]c(=O)c3c2)cc2cn(C)nc12` [Compound 166, 6-(2,7-dimethyl-2H-indazol-5-yl)-2-(piperazin-1-yl)quinazolin-4(3H)-one], for which the AC50 in the assay with HTT mRNA (setting [1]) and with HTT mRNA (setting [2]) was 1000 to 10000 nM in each case. Besides, the figures for the IC50 with HTT CJ mRNA (setting [3]), with SMN2 CJ mRNA (setting [3]) and in the assay with Target C CJ mRNA (setting [3]) were 1000 to 10000 nM, 1000 to 10000 nM and 1 to 10 µM, respectively.

For the molecule `Cc1cc(-c2nc3ccc(N(C)C4CCN(C)CC4)cc3c(=O)[nH]2)cc2cn(C)nc12` [Compound 239, 2-(2,7-dimethyl-2H-indazol-5-yl)-6-(methyl(1-methylpiperidin-4-yl)amino)quinazolin-4(3H)-one], the AC50 with HTT mRNA (setting [1]) and in the assay with HTT mRNA (setting [2]) was above 10000 nM in each case. Besides, the IC50 in the assay on HTT CJ mRNA (setting [3]) is above 10000 nM; in the assay with SMN2 CJ mRNA (setting [3]), 1000 to 10000 nM; in the assay on Target C CJ mRNA (setting [3]), above 10 µM.

In the case of `Cc1cc(-c2ccc3c(c2)CCN(C2CCNCC2)C3=O)cc2cn(C)nc12` [Compound 219], the AC50 in the assay on HTT mRNA (setting [1]) and in the assay with HTT mRNA (setting [2]) was 1000 to 10000 nM each time. Also, the IC50 in the assay with HTT CJ mRNA (setting [3]) was 1000 to 10000 nM; with SMN2 CJ mRNA (setting [3]), below 100 nM; with Target C CJ mRNA (setting [3]), 1 to 10 µM.

In the case of `Cc1cn2cc(-c3ccc4nc(NC5CCNCC5)[nH]c(=O)c4c3)cc(F)c2n1` [Compound 238], the AC50 with HTT mRNA (setting [1]) and with HTT mRNA (setting [2]) was above 10000 nM throughout. Moreover, the IC50 is above 10000 nM in the assay with HTT CJ mRNA (setting [3]), above 10000 nM with SMN2 CJ mRNA (setting [3]) and above 10 µM with Target C CJ mRNA (setting [3]).

As to `CN1CCC(n2cnc3cc(-c4ccc5nn(C)cc5c4)ccc3c2=O)CC1` [Compound 208, 7-(2-methyl-2H-indazol-5-yl)-3-(1-methylpiperidin-4-yl)quinazolin-4(3H)-one], the figures for the half-maximal activity concentration (AC50) in the assay on HTT mRNA (setting [1]) and in the assay on HTT mRNA (setting [2]) were above 10000 nM and 1000 to 10000 nM, respectively. For the same molecule, the results for the IC50 in the assay on HTT CJ mRNA (setting [3]), in the assay with SMN2 CJ mRNA (setting [3]) and in the assay on Target C CJ mRNA (setting [3]) were above 10000 nM, 100 to 1000 nM and above 10 µM, respectively.

As for `Cc1cn2cc(-c3ccc4c(=O)n(C5CCNC6(CC6)C5)cnc4c3)cc(F)c2n1` (centres unmarked) [Compound 236, 7-(8-fluoro-2-methylimidazo[1,2-a]pyridin-6-yl)-3-(4-azaspiro[2.5]octan-7-yl)quinazolin-4(3H)-one], the AC50 in the assay on HTT mRNA (setting [1]) and in the assay on HTT mRNA (setting [2]) was 100 to 1000 nM in each case. The results for the IC50 in the assay with HTT CJ mRNA (setting [3]), in the assay on SMN2 CJ mRNA (setting [3]) and with Target C CJ mRNA (setting [3]) were 100 to 1000 nM, below 100 nM and 0.1 to 1 µM, respectively.

In the case of `Cc1cn2cc(-c3ccc4c(=O)n(C5CCN(C)CC5)cnc4c3)cc(F)c2n1` [Compound 207, 7-(8-fluoro-2-methylimidazo[1,2-a]pyridin-6-yl)-3-(1-methylpiperidin-4-yl)quinazolin-4(3H)-one], the AC50 in the assay on HTT mRNA (setting [1]) and in the assay on HTT mRNA (setting [2]) was 1000 to 10000 nM each time. Moreover, the figures for the IC50 in the assay with HTT CJ mRNA (setting [3]), in the assay with SMN2 CJ mRNA (setting [3]) and in the assay on Target C CJ mRNA (setting [3]) were 1000 to 10000 nM, 100 to 1000 nM and 1 to 10 µM, respectively.

In the case of `Cc1cn2cc(-c3ccc4c(=O)n(C5CCNCC5)ncc4c3)cc(C)c2n1` [Compound 257], the AC50 with HTT mRNA (setting [1]) and in the assay on HTT mRNA (setting [2]) was 100 to 1000 nM throughout. Further, the half-inhibitory concentration (IC50) with HTT CJ mRNA (setting [3]) was 100 to 1000 nM; in the assay on SMN2 CJ mRNA (setting [3]), below 100 nM; with Target C CJ mRNA (setting [3]), 1 to 10 µM.

On to `CN1CCC(Nc2ccc3c(=O)n(-c4ccc5nn(C)cc5c4)cnc3c2)CC1` [Compound 163, 3-(2-methyl-2H-indazol-5-yl)-7-((1-methylpiperidin-4-yl)amino)quinazolin-4(3H)-one], for which the AC50 is above 10000 nM with HTT mRNA (24 h, read-out: HTT AJ AC50 (nM)) and above 10000 nM in the assay with HTT mRNA (24 h, read-out: HTT CJ AC50 (nM)). Moreover, the results for the IC50 in the assay with HTT CJ mRNA, in the assay on SMN2 CJ mRNA and in the assay with Target C CJ mRNA were above 10000 nM, above 10000 nM and above 10 µM, respectively.

Turning to `Cc1cc(-c2ccc3c(=O)n(C4CCNCC4)ncc3c2)cc2cn(C)nc12` [Compound 251], the AC50 in the assay on HTT mRNA (setting [1]) and in the assay on HTT mRNA (setting [2]) was 100 to 1000 nM each time. Further, the IC50 was 100 to 1000 nM with HTT CJ mRNA (setting [3]), below 100 nM with SMN2 CJ mRNA (setting [3]) and 0.1 to 1 µM with Target C CJ mRNA (setting [3]).
